Test system: delta receptor
Assay: Radioligand binding assay, [3H]-DADLE in mouse brain membranes
Conditions: stated in words after the delta affinity range
Experimental: The activity of the compounds of the present invention as selective delta ligands is determined in radioligand binding assays as described below.
Mouse brain membranes were prepared as described by Kosterlitz (Br. J. Pharmacol., 1981, 73, 939.). The binding of the preferential delta ligand [^3 H]-[D-Ala^2,D-Leu^5 ]-enkephalin (DADLE) was evaluated at its KD concentration (1.3 nM) in presence of 40 nM of the unlabelled mu ligand [D-Ala^2, MePhe^4, Gly-ol5]-enkephalin (DAMGO). The binding of the mu ligand [^3 H]-DAMGO (Eur. J. Pharmacol., 1989, 166, 213) and of the kappa ligand [^3 H]-U69593 (Excerpta Medica, 1990, 211) were carried out at 0.5 nM. The non-specific binding was determined in presence of naloxone (10 μM) for all tritiated ligands. Binding data were expressed as percentage of inhibition and fitted the following equation: f(x)=100.X/(IC50 +X) where X are cold drug concentration values. The IC50 obtained were used to calculate the inhibitory constants (Ki) accordingly to the Cheng and Prusoff relation (Biochem. Pharmacol., 1973, 22, 3099).

SMILES: CN1CC[C@]2(c3cccc(O)c3)CC(c3ccccc3)=CC[C@H]2C1 (racemic) [Example 3, (±)-trans-4a-(3-Hydroxyphenyl)-2-methyl-6-phenyl-1,2,3,4,4a,5,8,8a-octahydroisoquinoline]
- potency rank among the exemplified compounds: most potent of the exemplified compounds
